Where a name gives a salt, the structure may show the parent alone.
What was measured:
Assay type in all cases: cell-based, human
[1] = system: A375 melanoma cells (BRAF mutation); experiment: Cell proliferation and colony formation (xCELLigence, CCK-8, clonogenic assay)
Description: Dojindo's highly water-soluble tetrazolium salt (WST-8) is reduced by dehydrogenase activity in cells to give a yellow-color formazan dye, which is soluble in the tissue culture media. The amount of the formazan dye generated by dehydrogenases is directly proportional to the number of living cells. Equal number of cells (1000-2000 cells) were seeded per triplicate in 96-well plates and cultured in the different conditions. Medium was replaced by 100 μL of fresh medium and 10 μL of CCK-8 reagent was added per well. After an incubation for 1 to 4 h at 37° C., absorbance was measured at 450 nm in a NanoQuant microplate reader Infinite M200 (TECAN). Results were calculated as optical density (OD) 450 nm=OD of sample−OD of blank.
The E8 xCELLigence plates were prepared by addition of 100 μL of complete media to every well. After incubation at 37° C., plates were inserted into the xCELLigence station, and the base-line impedance was measured to ensure that all wells and connections were working. Following harvesting and counting, cells were diluted to the selected seeding density and 100 μl of cells in culture medium was added to each well. For the cell proliferation assays for each condition, 1×10^3-5×10^3 cells/well was seeded into 100 μL of media in the E-Plate L8 (Acea Biosciences). The attachment and proliferation of the cells were monitored every 30 min. Cell proliferation was monitored for 48-72 h. Cell Index at each time point is defined as (Rn−Rb)/15, where Rn is the cell-electrode impedance of the well when it contains cells and Rb is the background impedance of the well with the media alone. For the cell adhesion assays, for each condition, 1×10^3-5×10^3 cells/well was seeded into 100 μL of media in E-Plate L8 (Acea Biosciences). Cell proliferation was monitored for 1 h every 10 sec. The extend of cell adhesion and spreading was monitored every min for 1-3 h. Cell Index at each time point is defined as (Rn−Rb)/15, where Rn is the cell-electrode impedance of the well when it contains cells and Rb is the background impedance of the well with the media alone.
(§1) Colony formation assays were performed by seeding 5×10^3 to 5×10^4 cells per well onto 6-12 well plates and grown for 7-15 days. The culture medium was replaced every 48 h. The cells were washed with warm Saline Solution and fixed with cold 2% PFA for 15 min. Cells were washed with 1×PBS and stained with 0.1% of crystal violet (Sigma-Aldrich) for 15 min. After staining, the cells were washed with distilled water and dried at room temperature. The colonies were quantified by diluting crystal violet in 5% acetic acid and 100 μL of the solution was collected to measure the absorbance at 570 nm using a NanoQuant microplate reader Infinite M200 (TECAN).

[2] = system: cleaved caspase 3 in A375 cells; experiment: Cleaved caspase 3 western blot
Text: (§2) The insoluble fraction was resuspended in lysis buffer (membrane).

[3] = system: A375 cell line; experiment: Gap junction intercellular communication: scrape loading and dye transfer; details: A375 transfected with Cx43 vector vs empty vector (EV)
Description: Cells were seeded on 6 or 12 wells and cultured until 80-100% of confluence and rinsed twice with warm PBS. Lucifer Yellow CH dilithium salt (1 mg/mL) (LY: Cell Projects Ltd© Kent) in PBS was added to the cells and parallel cuts (3 cuts per well) were performed with a surgical blade (Swann-Mortonscalpel®). After 3-5 min at 37° C. cells were washed with PBS and fixed 2% PFA in PBS. LY becomes incorporated by cells along the cut and move from the dye-loaded cells into adjacent ones connected by functional gap junction channels. The areas for LY loading were randomly selected in the central part of wells to obtain the images for quantification. Images were captured with 10× objective using a Nikon Eclipse Ti fluorescent microscope. The constant exposures were used for all images for a given experiment. Ten images per sample were quantified. The score was calculated as the ratio of the number of non-damage LY positive cells at the edge and the number of the LY positive cells outside the edge.
Cells were seeded on 12-wells plated and cultured until 80-100% of confluence. […] The fluorescence emitted was measured at 640/40 nm and 540/40 nm with two photodetectors, the time course of the passage of dye from the injected cell to the adjacent cells was studied.

[4] = system: p53 and p16 in A375 cells; experiment: Western blot of senescence biomarkers p53 and p16; details: Cx43 cells vs cells transfected with empty vector
Text: as §2

[5] = system: A375 cells resistant to BRAF/MEKi (DR); experiment: Apoptosis assay (PI/YO-PRO-1) in double resistant cells; details: DR A375 cells transfected with Cx43 vector
Description: The BRAF mutated tumour cell lines A375 (melanoma), SK-Mel-28 (melanoma), MDA-MB-231 (human breast cancer) and HT-29 (human colorectal adenocarcinoma) were also used to test the role of Cx43 in drug resistance. SK-Mel147 (melanoma), NRAS mutated cell line was selected to compare the results with BRAF mutant cell lines. Cells were cultured in Dulbecco's modified Eagle's medium (DMEM) (Lonza) supplemented with 10% fetal bovine serum (FBS) (Gibco, Thermo Fisher Scientific) and 100 U/mL penicillin and 100 μg/ml streptomycin (Gibco, Thermo Fisher Scientific). […] After adding DMEM supplemented with 10% FBS, cells were transferred to falcon tube and counted using the Neubauer chamber method in a light microscope. […]
Supernatants (died cells) were aspirated and attached cells were harvested. Supernatants and cells were mixed, counted and 1 million cells were resuspended in 1 mL in flow cytometry (FC) buffer. […] After the incubation time (PI/YO-PRO) samples were analyzed in a FACs Scalibur acquiring 20,000 event per triplicate. The red fluorescence emitted by PI was detected at 610 nm and the green florescence emitted by YO-PRO was detected at 515 nm. Data was analyzed using the FCS Express 6 Flow software.

[6] = system: A375 tumour cell line; experiment: Cellular senescence: SA-β-Gal staining and flow cytometry
Description: The detection of SA-β-Gal activity was measured using the Senescence Cells Histochemical Staining Kit (Sigma-Aldrich). Cells were rinsed with warm PBS and fixed for 7 min at RT with a fixation buffer composed by 2% paraformaldehyde and 0.2% glutaraldehyde. After three washed with PBS, cells were incubated for 6 h or O/N at 37° C. without CO2 in a staining solution containing X-gal. This lactose analogue can be cleaved by β-galactosidase producing a blue insoluble product. Finally, cells were washed with PBS and images were taken using a light microscope.
SA-β-Gal activity was analyzed with the fluorogenic β-Galactosidase substrate di-β-D-galactopyranoside (FDG, Thermo Fisher Scientific), which is hydrolyzed by the endogenous β-galactosidase to fluorescein (FITC). Cells were harvested and incubated in a staining medium (PBS, 4% FBS, 10 mM HEPES, pH 7.2) at 37° C. for 10 min. The β-Galactosidase assay was started by adding warm 2 mM FDG to the cell suspension and after incubating for 3 min at 37° C. in the dark. The reaction was stopped with the addiction of ice-cold staining medium to the cells, which were kept on ice protected from light. […] was used for fluorescein and acquiring 20,000 event per triplicate. Data was analyzed using the FCS Express 6 Flow software.

[7] = system: A375 melanoma cells; experiment: Apoptosis assay, PI/YO-PRO-1 double staining, flow cytometry
Description: Supernatants (died cells) were aspirated and attached cells were harvested. Supernatants and cells were mixed, counted and 1 million cells were resuspended in 1 mL in flow cytometry (FC) buffer. Membrane viability analysis was performed by double staining PI/YO-PRO-1. YO-PRO-1 (Invitrogen) was added to the cells (150 nM) and incubated 10 min in the dark at 4° C. PI (Invitrogen) was added (2 μg/mL) and incubated for 5 min in the dark at 4° C. After the incubation time (PI/YO-PRO) samples were analyzed in a FACs Scalibur acquiring 20,000 event per triplicate. The red fluorescence emitted by PI was detected at 610 nm and the green florescence emitted by YO-PRO was detected at 515 nm. Data was analyzed using the FCS Express 6 Flow software.

[8] = system: Sk-Mel-147 melanoma cells (NRAS mutation); experiment: Colony formation assay; details: Sk-Mel-147 transfected with Cx43 vector
Description: as §1

[9] = system: HT29 colorectal cancer cells (BRAF mutation); experiment: Colony formation assay; details: HT29 transfected with Cx43 vector vs EV
Description: as §1

[10] = system: MDA-MB-231 breast cancer cells (BRAF mutation); experiment: Colony formation assay; details: MDA-MB-231 transfected with Cx43 vector vs EV
Description: as §1

Compound	colony formation capacity ([1]; 100 μM CBX for 7 days, A375 EV and Cx43-overexpressing cells)	levels of cleaved caspase-3 ([2]; Cx43 overexpression in combination with BRAF/MEKi (1/100 nM T/D, 5 days))	levels of cleaved caspase-3 ([2]; Cx43 overexpression with BRAF/MEKi (T/D 4 days) followed by 24 h 3.5 μM NAV)	cell proliferation and colony formation capacity ([1]; A375-Cx43 after 1-2 weeks and 4 months under 1 nM T/100 nM D)	cells detected ([1]; A375-Cx43 after 2 weeks under 1 nM T/100 nM D)	proliferation rate ([1]; A375 transfected with Cx43 vector vs empty vector, xCelligence, colony formation, CCK8)	capacity to form colonies ([1]; A375 with Cx43 vector plus different concentrations of dabrafenib and trametinib for 7 days)	dye coupling (GJIC) [3]	levels of senescent biomarkers p53 and p16 [4]	MFI ratio of apoptotic cells [5]	cellular senescence (flow cytometry, β-Gal staining) ([6]; A375-Cx43 vs A375-EV under 100 nM dabra and 1 nM trame for 5 days)	cellular senescence (ß-Galactosidase activity) ([6]; Cx43 re-expression by vector in A375, no drug)	apoptosis ([7]; A375-Cx43 under BRAF/MEKi treatment (100 nM dabra, 1 nM trame, 5 days))	basal percentage of early apoptotic cells ([7]; Cx43 overexpressing A375 vs empty vector)	capacity to form colonies [8]	capacity to form colonies [9]	capacity to form colonies [10]
CC1(C)[C@@H](OC(=O)CCC(=O)O)CC[C@]2(C)[C@H]3C(=O)C=C4[C@@H]5C[C@@](C)(C(=O)O)CC[C@]5(C)CC[C@@]4(C)[C@]3(C)CC[C@@H]12 [CBX, Carbenoloxolone disodium salt, reference compound]	No changes were detected in colony formation capacity																
Cx43: channel protein Connexin 43, restored in tumour cells with a pIRESpuro2 plasmid containing the human Cx43 sequence		showed the highest levels of cleavage caspase-3	showed the highest levels of cleavage caspase-3	significantly less cell proliferation and colony formation capacity	Almost no cells were detected	significant reduction in the proliferation rate	significantly decreases the capacity to form colonies	increased levels of dye coupling compared with control EV	higher levels of the senescent biomarkers p53 and p16 than control cells	increases the MFI ratio of apoptotic cells	enhanced cellular senescence	increases cellular senescence	increases cellular senescence and apoptosis	significantly higher	significantly decreases the capacity to form colonies	significantly decreases the capacity to form colonies	significantly decreases the capacity to form colonies

— patent US20240173380A1, “CONNEXIN 43 FOR USE IN THE TREATMENT OF A CANCER TYPE CHARACTERIZED BY THE ACTIVATION OF A MITOGEN-ACTIVATED PROTEIN KINASE” (FUNDACIÓN PROFESOR NOVOA SANTOS, priority 2020, published 2024)
